Laboratory results from patent US20260199479A1, “DRUG LINKER AND LINKER-CONJUGATED COMPOUND” (Anti-Microbial Savior BioteQ Co., Ltd., priority 2022, published 2026).
Converted amounts (≈) assume the structure as drawn.

Experiments:
AML12 cells = test: Cytotoxicity screening, PrestoBlue cell viability; format: cell-based, mouse; conditions: AML12, normal hepatocytes
Protocol: AML12 cells, alpha mouse liver 12, were obtained from the American Type Culture Collection (ATCC, USA). Cells were cultured in DMEM: F12 culture medium (Gibco, USA), 10% fetal bovine serum (FBS) (Gibco, USA), 10 μg/mL insulin, 5.5 μg/mL transferrin, 5 ng/ml selenium, 40 ng/ml dexamethasone (Gibco, USA), and 1% antibiotics (1×penicillin, streptomycin and glutamic acid) (Gibco, USA).
(§1) Cell viability was assessed with PrestoBlue assay (Invitrogen, USA). Cells were seeded into 96-well plates and cultured with test compounds according to the manufacturer's protocol. After 48 hours of exposure to test compounds, the culture medium was discarded and rinsed with PBS. […] Absorbance was measured at the experimental wavelength of 570 nm and the normalized wavelength of 600 nm in a SpectraMax iD3 microplate reader. […] Cell viability was expressed as a percentage relative to the control, and calculated using the following formula: cell viability (%)=[(Absorbance of test wells at 570 nm−Absorbance of only culture medium wells at 570 nm−Absorbance of test wells at 600 nm+Absorbance of only culture medium wells at 600 nm)/Absorbance of the control well at 570 nm−Absorbance of only culture medium wells at 570 nm-Absorbance of the control well at 600 nm+Absorbance nm of only culture medium wells at 600 nm)]×100.

Caco-2 = test: Cytotoxicity screening, PrestoBlue cell viability; format: cell-based; conditions: Caco-2, colon cancer cells
Protocol: Caco-2, colorectal adenocarcinoma, was obtained from the Bioresource Collection and Research Center ([…]). Cells were cultured in minimal essential Eagle's culture medium (FBS) (Gibco, USA) containing 2 mM L-glutamic acid, 1.5 mg/mL sodium bicarbonate, 0.1 mM non-essential amino acids, 1.0 mM sodium pyruvate (Gibco, USA), 20% fetal bovine serum (Gibco, USA), and 1% antibiotics (1×penicillin, streptomycin and glutamic acid) (Gibco, USA).
as §1

A549 = test: Cytotoxicity screening, PrestoBlue cell viability; format: cell-based, human; conditions: A549, lung cancer cells
Protocol: A549, human non-small cell lung cancer cells, were obtained from the Bioresource Collection and Research Center (BCRC, Taiwan, China). Cells were cultured in F12K culture medium (Gibco, USA) containing 10% FBS (Gibco, USA) and 1% antibiotics (1×penicillin, streptomycin and glutamic acid) (Gibco, USA).
(§2) Cell viability was assessed with PrestoBlue assay (Invitrogen, USA). Cells were seeded into 96-well plates and cultured with test compounds according to the manufacturer's protocol. After 48 hours of exposure to test compounds, the culture medium was discarded and rinsed with PBS. Then, add 10 μL PrestoBlue reagent containing 90 μL culture medium to the cells and incubate the cell plate at 37° C. in the dark for 120 min. Absorbance was measured at the experimental wavelength of 570 nm and the normalized wavelength of 600 nm in a SpectraMax iD3 microplate reader. […] Cell viability was expressed as a percentage relative to the control, and calculated using the following formula: cell viability (%)=[(Absorbance of test wells at 570 nm−Absorbance of only culture medium wells at 570 nm−Absorbance of test wells at 600 nm+Absorbance of only culture medium wells at 600 nm)/Absorbance of the control well at 570 nm−Absorbance of only culture medium wells at 570 nm-Absorbance of the control well at 600 nm+Absorbance nm of only culture medium wells at 600 nm)]×100.

PANC-1 = test: Cytotoxicity screening, PrestoBlue cell viability; format: cell-based, human; conditions: PANC-1, pancreatic cancer cells
Protocol: PANC-1, human pancreatic epithelioid carcinoma, was obtained from the American Type Culture Collection (ATCC, USA). Cells were cultured in DMEM culture medium (Gibco, USA) containing 10% FBS (Gibco, USA) and 1% antibiotics (1×penicillin, streptomycin and glutamic acid) (Gibco, USA).
(§3) Cell viability was assessed with PrestoBlue assay (Invitrogen, USA). Cells were seeded into 96-well plates and cultured with test compounds according to the manufacturer's protocol. After 48 hours of exposure to test compounds, the culture medium was discarded and rinsed with PBS. Then, add 10 μL PrestoBlue reagent containing 90 μL culture medium to the cells and incubate the cell plate at 37° C. in the dark for 120 min. Absorbance was measured at the experimental wavelength of 570 nm and the normalized wavelength of 600 nm in a SpectraMax iD3 microplate reader. The result was corrected by subtracting the blank value. Cell viability was expressed as a percentage relative to the control, and calculated using the following formula: cell viability (%)=[(Absorbance of test wells at 570 nm−Absorbance of only culture medium wells at 570 nm−Absorbance of test wells at 600 nm+Absorbance of only culture medium wells at 600 nm)/Absorbance of the control well at 570 nm−Absorbance of only culture medium wells at 570 nm-Absorbance of the control well at 600 nm+Absorbance nm of only culture medium wells at 600 nm)]×100.

HCT-15 = test: Cytotoxicity screening, PrestoBlue cell viability; format: cell-based; conditions: HCT-15, colon cancer cells
Protocol: HCT-15, colorectal adenocarcinoma, was obtained from the Bioresource Collection and Research Center (BCRC, Taiwan, China). Cells were cultured in RPMI 1640 culture medium (Gibco, USA) containing 10% fetal bovine serum (FBS) (Gibco, USA) and 1% antibiotics (1×penicillin, streptomycin and glutamic acid) (Gibco, USA).
as §2

HuCCT1 cells = test: Cytotoxicity screening, PrestoBlue cell viability; format: cell-based, human; conditions: HuCCT1, 20 μg/mL
Protocol: HuCCT1 cells, human cholangiocarcinoma cells, were obtained from iCell Bioscience Inc. (iCell, China). Cells were cultured in 90% RPMI 1640 culture medium (Gibco, USA), 10% fetal bovine serum (FBS) (Gibco, USA), and 1% antibiotics (1×penicillin, streptomycin and glutamine) (Gibco, USA).
as §2

[1] = Water solubility test (HPLC); format: physicochemical; conditions: double distilled water, thermodynamic from solid
Protocol: 5 mg of the standard test compound was weighed and dissolved in 5 mL of IPA as a stock solution (1 mg/mL). Double distilled water was then diluted to prepare 1000, 100, 50, 25, 12.5, 10, 5, 2.5, 1.25, 1, 0.5, 0.25, 0.125 μg/mL standard solution calibration lines. 60 μL of each concentration standard solution was used for HPLC analysis. Peak areas were integrated to establish a calibration line, and the accuracy of the analysis method was evaluated through the correlation coefficient (R-squared).
1 mL of double distilled water was weighed into a microcentrifuge tube and the test compound was dissolved. Undissolved compounds were ensured to be still present by vortexing for 5 min and sonicating for 20 min. After centrifugation, the supernatant was filtered through a 0.22 μm PTEF membrane. The […] was analyzed by HPLC and the water solubility was calculated from the peak area.

BxPC-3 = test: Cytotoxicity screening, PrestoBlue cell viability; format: cell-based, human; conditions: BxPC-3, pancreatic cancer cells
Protocol: BxPC-3, human pancreatic adenocarcinoma cells, were obtained from the Bioresource Collection and Research Center (BCRC, Taiwan, China). Cells were cultured in RPMI 1640 culture medium (Gibco, USA) containing 10% FBS (Gibco, USA) and 1% antibiotics (1×penicillin, streptomycin and glutamic acid) (Gibco, USA).
as §2

Vero E6 cells = test: Cytotoxicity screening, PrestoBlue cell viability; format: cell-based, cercopithecus aethiops; conditions: Vero E6, normal kidney cells
Protocol: Vero E6 cells, cercopithecus aethiops renal epithelial cells, were obtained from the American Type Culture Collection (ATCC, USA). Cells were cultured in Dulbecco's Modified Eagle Medium (DMEM) (Gibco, USA) containing 10% FBS (Gibco, USA), 100 U/mL penicillin, and 100 μg/mL streptomycin (Gibco, USA). Cell viability was assessed with PrestoBlue assay (Invitrogen, USA). Cells were seeded into 96-well plates and cultured with test compounds according to the manufacturer's protocol. After 48 hours of exposure to test compounds, the culture medium was discarded and rinsed with PBS. Then, add 10 μL PrestoBlue reagent containing 90 μL culture medium to the cells and incubate the cell plate at 37° C. in the dark for 120 min. Absorbance was measured at the experimental wavelength of 570 nm and the normalized wavelength of 600 nm in a SpectraMax iD3 microplate reader. […] Cell viability was expressed as a percentage relative to the control, and calculated using the following formula: cell viability (%)=[(Absorbance of test wells at 570 nm−Absorbance of only culture medium wells at 570 nm−Absorbance of test wells at 600 nm+Absorbance of only culture medium wells at 600 nm)/Absorbance of the control well at 570 nm−Absorbance of only culture medium wells at 570 nm-Absorbance of the control well at 600 nm+Absorbance nm of only culture medium wells at 600 nm)]×100.

NOZ cells = test: Cytotoxicity screening, PrestoBlue cell viability; format: cell-based, human; conditions: gallbladder cancer cells
Protocol: NOZ cells, human gallbladder cancer cells, were obtained from the Japanese Collection of Research Bioresources Cell Bank (JCRB, Japan). Cells were cultured in 90% William's E culture medium (Gibco, USA), 10% fetal bovine serum (FBS) (Gibco, USA), and 1% antibiotics (1×penicillin, streptomycin and glutamine) (Gibco, USA).
as §2

HuH28 cells = test: Cytotoxicity screening, PrestoBlue cell viability; format: cell-based, human; conditions: HuH28, 20 μg/mL
Protocol: HuH28 cells, human liver, and cholangiocarcinoma cells, were obtained from the Japanese Collection of Research Bioresources Cell Bank (JCRB, Japan). Cells were cultured in 90% RPMI 1640 culture medium (Gibco, USA), 10% fetal bovine serum (FBS) (Gibco, USA), and 1% antibiotics (1×penicillin, streptomycin and glutamine) (Gibco, USA).
as §2

AsPC-1 = test: Cytotoxicity screening, PrestoBlue cell viability; format: cell-based, human; conditions: AsPC-1, pancreatic cancer cells
Protocol: AsPC-1, human pancreatic adenocarcinoma ascites metastatic cells, were obtained from the Bioresource Collection and Research Center (BCRC, Taiwan, China). Cells were cultured in RPMI 1640 culture medium (Gibco, USA) containing 10% FBS (Gibco, USA) and 1% antibiotics (1×penicillin, streptomycin and glutamic acid) (Gibco, USA).
as §2

[2] = system: normal cells or cancer cells; test: Cytotoxicity tests in various cell lines (summary); format: cell-based; conditions: normal cells and cancer cells, various cell lines (Table 3)
Protocol: as §3
Taking the linker of the present invention (n=2; X, Y, Z=O; R^1, R^2, R^4=H; R^3=CH3) as an example, the linker has significant advantages in terms of synthetic elastic properties. […]

MCF-7 = test: Cytotoxicity screening, PrestoBlue cell viability; format: cell-based, human; conditions: MCF-7, breast cancer cells
Protocol: MCF7, human breast cancer, was obtained from the Bioresource Collection and Research Center (BCRC, Taiwan, China). Cells were cultured in minimal essential Eagle's culture medium (FBS) (Gibco, USA) containing 2 mM L-glutamic acid, 1.5 mg/mL sodium bicarbonate, 0.1 mM non-essential amino acids, 1.0 mM sodium pyruvate (Gibco, USA), 10% fetal bovine serum (Gibco, USA) and 1% antibiotics (1×penicillin, streptomycin and glutamic acid) (Gibco, USA).
as §1

| SMILES | 20 μg/mL 48-hour survival rate (AML12 cells) [%] | 20 μg/mL 48-hour survival rate (Caco-2) [%] | 20 μg/mL 48-hour survival rate (A549) [%] | 20 μg/mL 48-hour survival rate (PANC-1) [%] | 20 μg/mL 48-hour survival rate (HCT-15) [%] | 20 μg/mL 48-hour survival rate (HuCCT1 cells) [%] | solubility [1] [µg/mL] | 20 μg/mL 48-hour survival rate (BxPC-3) [%] | 20 μg/mL 48-hour survival rate (Vero E6 cells) [%] | 20 μg/mL 48-hour survival rate (NOZ cells) [%] | 20 μg/mL 48-hour survival rate (HuH28 cells) [%] | 20 μg/mL 48-hour survival rate (AsPC-1) [%] | cytotoxicity [2] | 20 μg/mL 48-hour survival rate (MCF-7) [%] |
| --- | --- | --- | --- | --- | --- | --- | --- | --- | --- | --- | --- | --- | --- | --- |
| C/C(=C\CO)CC/C=C(\C)CCC(O)C(C)C(=O)O (stereo not drawn) [Linker of the present invention, (6E,10E)-3,12-dihydroxy-2,6,10-trimethyldodec-6,10-dienoic acid] | 91.99 ± 2.6 | 99.94 ± 3.16 | 82.28 ± 5.53 | 106.67 ± 8.24 | 88.96 ± 15.45 | 110.04 ± 0.17 | 780 (≈ 2890 µM) | 91.33 ± 5.93 | 96.28 ± 3.66 | 107.26 ± 14.11 | 87.92 ± 5.14 | 93.02 ± 5.01 | not cytotoxic | 89.45 ± 8.95 |
| CC(C)=CCC/C(C)=C/CC/C(C)=C/CO [Farnesol, reference compound] | – | – | – | – | – | – | 87.4 (≈ 393 µM) | – | – | – | – | – | – | – |
